Data: ChEMBL document CHEMBL1275247, “Pharmacokinetics and safety of CXA-101, a new antipseudomonal cephalosporin, in healthy adult male and female subjects receiving single- and multiple-dose intravenous infusions” (Antimicrob Agents Chemother, 2010)

What was measured:
[1] = Cmax in healthy human at 1500 mg, iv administered as single dose as 1 hr iv infusion; type: ADME, organism-based; parameters: dose 1500 mg, route intravenous; conditions: in vivo
[2] = Cmax in healthy human at 2000 mg, iv administered as single dose as 1 hr iv infusion; type: ADME, organism-based; parameters: dose 2000 mg, route intravenous; conditions: in vivo
[3] = Tmax in healthy human at 250 mg, iv administered as single dose as 1 hr iv infusion; type: ADME, organism-based; conditions: in vivo
[4] = Tmax in healthy human at 2000 mg, iv administered as single dose as 1 hr iv infusion; type: ADME, organism-based; conditions: in vivo
[5] = AUC (0 to infinity) in healthy human at 2000 mg, iv administered as single dose as 1 hr iv infusion; type: ADME, organism-based; parameters: dose 2000 mg, route intravenous, time infinity; conditions: plasma
[6] = Clearance in healthy human at 1000 mg, iv administered as single dose as 1 hr iv infusion; type: ADME, organism-based; conditions: in vivo
[7] = Clearance in healthy human at 2000 mg, iv administered as single dose as 1 hr iv infusion; type: ADME, organism-based; conditions: in vivo
[8] = Renal clearance in healthy human at 250 mg, iv administered as single dose as 1 hr iv infusion; type: ADME, organism-based, Kidney; conditions: in vivo, read-out: CL_renal
[9] = Renal clearance in healthy human at 500 mg, iv administered as single dose as 1 hr iv infusion; type: ADME, organism-based, Kidney; conditions: in vivo, read-out: CL_renal
[10] = Renal clearance in healthy human at 2000 mg, iv administered as single dose as 1 hr iv infusion; type: ADME, organism-based, Kidney; conditions: in vivo, read-out: CL_renal
[11] = Volume of distribution at steady state in healthy human at 500 mg, iv administered as single dose as 1 hr iv infusion; type: ADME, organism-based; conditions: in vivo
[12] = Drug recovery in urine of healthy human at 1000 mg, iv administered as single dose as 1 hr iv infusion after 24 hrs; type: ADME, organism-based; conditions: read-out: Activity
[13] = Drug recovery in urine of healthy human at 250 mg, iv administered as single dose as 1 hr iv infusion after 24 hrs; type: ADME, organism-based; conditions: read-out: Activity
[14] = Half-life in plasma of healthy human 500 mg administered as single ascending dose, iv for 1 hr infusion; type: ADME, organism-based
[15] = Half-life in plasma of healthy human 1000 mg administered as single ascending dose, iv for 1 hr infusion; type: ADME, organism-based
[16] = Half-life in plasma of healthy human 1500 mg administered as single ascending dose, iv for 1 hr infusion; type: ADME, organism-based
[17] = Mean residence time in healthy human at 500 mg, iv administered as single dose as 1 hr iv infusion; type: ADME, organism-based; conditions: in vivo
[18] = Drug recovery in urine of healthy human at 500 mg, iv administered as single dose as 1 hr iv infusion after 24 hrs; type: ADME, organism-based; conditions: read-out: Activity
Homo sapiens [19] = assay: Toxicity in healthy human assessed as occurrence of nausea at 1000 mg, iv administered as single dose as 1 hr iv infusion; type: organism-based; conditions: in vivo
Homo sapiens [20] = assay: Toxicity in healthy human assessed as occurrence of headache at 1000 mg, iv administered as single dose as 1 hr iv infusion; type: organism-based; conditions: in vivo
Homo sapiens [21] = assay: Toxicity in healthy human assessed as occurrence of diarrhea at 500 mg, iv administered as 1 hr infusion every 8 hrs for 10 days; type: organism-based; conditions: in vivo
[22] = Cmax in healthy human at 500 mg, iv administered as 1 hr infusion every 8 hrs for 10 days measured on day 10; type: ADME, organism-based; parameters: dose 500 mg, route intravenous; conditions: in vivo
[23] = Cmax in healthy human at 1000 mg, iv administered as 1 hr infusion every 8 hrs for 10 days measured on day 10; type: ADME, organism-based; parameters: dose 1000 mg, route intravenous; conditions: in vivo
[24] = Cmax in healthy human at 1500 mg, iv administered as 1 hr infusion every 12 hrs for 10 days measured on day 1; type: ADME, organism-based; parameters: dose 1500 mg, route intravenous; conditions: in vivo
[25] = Tmax in healthy human at 500 mg, iv administered as 1 hr infusion every 8 hrs for 10 days measured on day 1; type: ADME, organism-based; conditions: in vivo
[26] = Tmax in healthy human at 500 mg, iv administered as 1 hr infusion every 8 hrs for 10 days measured on day 10; type: ADME, organism-based; conditions: in vivo
[27] = Tmax in healthy human at 1000 mg, iv administered as 1 hr infusion every 8 hrs for 10 days measured on day 1; type: ADME, organism-based; conditions: in vivo
[28] = Tmax in healthy human at 1000 mg, iv administered as 1 hr infusion every 8 hrs for 10 days measured on day 10; type: ADME, organism-based; conditions: in vivo
[29] = AUC (0 to infinity) in healthy human at 500 mg, iv administered as 1 hr infusion every 8 hrs for 10 days measured on day 1; type: ADME, organism-based; parameters: dose 500 mg, route intravenous, time infinity; conditions: plasma
[30] = AUC (0 to infinity) in healthy human at 1000 mg, iv administered as 1 hr infusion every 8 hrs for 10 days measured on day 1; type: ADME, organism-based; parameters: dose 1000 mg, time infinity, route intravenous; conditions: plasma
[31] = AUC (0 to infinity) in healthy human at 1000 mg, iv administered as 1 hr infusion every 8 hrs for 10 days measured on day 10; type: ADME, organism-based; parameters: dose 1000 mg, time infinity, route intravenous; conditions: plasma
[32] = AUC (0 to infinity) in healthy human at 1500 mg, iv administered as 1 hr infusion every 12 hrs for 10 days measured on day 1; type: ADME, organism-based; parameters: dose 1500 mg, route intravenous, time infinity; conditions: plasma
[33] = AUC (0 to infinity) in healthy human at 1500 mg, iv administered as 1 hr infusion every 12 hrs for 10 days measured on day 10; type: ADME, organism-based; parameters: dose 1500 mg, route intravenous, time infinity; conditions: plasma
[34] = Clearance in healthy human at 500 mg, iv administered as 1 hr infusion every 8 hrs for 10 days measured on day 1; type: ADME, organism-based; conditions: in vivo
[35] = Clearance in healthy human at 1500 mg, iv administered as 1 hr infusion every 12 hrs for 10 days measured on day 1; type: ADME, organism-based; conditions: in vivo
[36] = Renal clearance in healthy human at 1500 mg, iv administered as 1 hr infusion every 12 hrs for 10 days measured on day 1; type: ADME, organism-based, Kidney; conditions: in vivo, read-out: CL_renal
[37] = Volume of distribution at steady state in healthy human at 1000 mg, iv administered as 1 hr infusion every 8 hrs for 10 days measured on day 10; type: ADME, organism-based; conditions: in vivo
[38] = Volume of distribution at steady state in healthy human at 1500 mg, iv administered as 1 hr infusion every 12 hrs for 10 days measured on day 10; type: ADME, organism-based; conditions: in vivo
[39] = Half-life in plasma of healthy human 500 mg, iv administered as 1 hr infusion every 8 hrs for 10 days measured on day 1; type: ADME, organism-based
[40] = Half-life in plasma of healthy human 1000 mg, iv administered as 1 hr infusion every 8 hrs for 10 days measured on day 1; type: ADME, organism-based
[41] = Half-life in plasma of healthy human 1500 mg, iv administered as 1 hr infusion every 12 hrs for 10 days measured on day 1; type: ADME, organism-based
[42] = Half-life in plasma of healthy human 1500 mg, iv administered as 1 hr infusion every 12 hrs for 10 days measured on day 10; type: ADME, organism-based
[43] = Mean residence time in healthy human at 1000 mg, iv administered as 1 hr infusion every 8 hrs for 10 days measured on day 1; type: ADME, organism-based; conditions: in vivo
[44] = Mean residence time in healthy human at 1500 mg, iv administered as 1 hr infusion every 12 hrs for 10 days measured on day 10; type: ADME, organism-based; conditions: in vivo
[45] = Drug recovery in urine of healthy human at 1500 mg, iv administered as 1 hr infusion every 12 hrs for 10 days measured on day 1; type: ADME, organism-based; conditions: read-out: Activity
[46] = Cmax in healthy human at 500 mg, iv administered as single dose as 1 hr iv infusion; type: ADME, organism-based; parameters: dose 500 mg, route intravenous; conditions: in vivo

Work on `Cn1c(N)c(NC(=O)NCCN)c[n+]1CC1=C(C(=O)O)N2C(=O)[C@@H](NC(=O)/C(=N\OC(C)(C)C(=O)[O-])c3nsc(N)n3)[C@H]2SC1` [CEFTOLOZANE] yielded a Cmax [1] of 87.4 µg/mL, a Cmax [2] of 128 µg/mL and a Tmax [3] of 1.03 h. The Tmax [4] was 1.06 h, the AUC(0-inf) [5] was 344 µg·h/mL and the clearance [6] was 110 mL/min. For the same compound, the clearance [7] was 96.9 mL/min, the CL renal at 1 h [8] was 101 mL/min and the CL renal at 1 h [9] was 90.4 mL/min. It also gave a CL renal at 1 h [10] of 92.9 mL/min, a Vd [11] of 14.8 L and a dose excreted at 24 h [12] of 85.2%. For the same compound, the dose excreted at 24 h [13] was 97.1%, the half-life [14] was 2.34 h and the half-life [15] was 2.25 h. The half-life [16] was 2.62 h, the MRT [17] was 2.5 h and the dose excreted at 24 h [18] was 91.2%. For the same compound, the Activity (Homo sapiens [19]) was “Non-toxic”, the Activity (Homo sapiens [20]) was “Non-toxic” and the Activity (Homo sapiens [21]) was “Non-toxic”. The Cmax [22] was 33.3 µg/mL, the Cmax [23] was 58 µg/mL and the Cmax [24] was 85.4 µg/mL. For the same compound, the Tmax [25] was 1.03 h, the Tmax [26] was 0.93 h and the Tmax [27] was 1.03 h. For the same compound, the Tmax [28] was 1.05 h, the AUC(0-inf) [29] was 88.1 µg·h/mL and the AUC(0-inf) [30] was 149 µg·h/mL. For the same compound, the AUC(0-inf) [31] was 143 µg·h/mL, the AUC(0-inf) [32] was 219 µg·h/mL and the AUC(0-inf) [33] was 207 µg·h/mL. For the same compound, the clearance [34] was 94.6 mL/min, the clearance [35] was 114 mL/min and the CL renal [36] was 119 mL/min. It also gave a Vd [37] of 17.1 L, a Vd [38] of 18.1 L and a half-life [39] of 2.21 h. It also gave a half-life [40] of 2.38 h, a half-life [41] of 2.72 h and a half-life [42] of 2.34 h. It also gave an MRT [43] of 2.64 h, an MRT [44] of 2.5 h and a dose excreted at 1 day [45] of 104%. It also gave a Cmax [46] of 32.2 µg/mL.
